Assay results taken from US4698332A, “Expectorant” (Mect Corporation, priority 1984, dated 1987).
Where a name gives a salt, the structure may show the parent alone. Read-outs that look alike come from different tables or passages of the source.

Legend:
ciliated cell = test: Rotating ciliated explant (Example 9, Table 7); type: cell-based; conditions: for activation at 10 µg/mL: 10^-2 mg/ml (terbutaline 1-^-2 [sic]); for activation at 10 µg/mL / activation at 1 µg/mL / activation at 0.1 µg/mL: mean ± SD, > 20.0 significant, read-out: Acceleration (rotating ciliated explant); for activation at 1 µg/mL: 10^-3 mg/ml; for activation at 0.1 µg/mL: 10^-4 mg/ml
Experimental: (§1) Human ciliated cells were collected from a normal trachea by means of a branchoscope, the ciliated cells being separated by rubbing the bronchus while observing through the branchoscope, while the collection of frog cilitated cells was conducted by rubbing the palatine mucosta, without being specially careful. […] The groups of cells were transferred to a cover slip and one drop of chicken plasma (prepared by Difco Company) and one drop of 50% chicken embryo extract were added to the cells, thus forming clots. The rotary motion in the clots was recorded by means of a video recorder and the number of rotations per minute was measured. The agents were dissolved in the Medium 199 and were injected through a tube attached to a rose chamber. The state of rotary motion 5 minutes, 10 minutes and 15 minutes after the injection were recorded by means of a video recorder, and the number of revolutions was measured.
A test was conducted to examine the above-mentioned effect by using sodium salt of N-Acetylneuraminic Acid, in accordance with the same testing method as that of Example 2.

palatine mucosa of frog [1] = test: Mucociliary transport of frog palatine mucosa (Example 8, Table 6); type: cell-based; conditions: mean ± SD, over 20.0% significant, read-out: Acceleration (mucociliary transport); for activation at 100 µg/mL: 10^-1 mg/ml; for activation at 10 µg/mL: 10^-2 mg/ml; for activation at 1 µg/mL: 10^-3 mg/ml; for activation at 0.1 µg/mL: 10^-4 mg/ml
Experimental: (§2) Mucociliary transport was measured by the particle transport method. After decapitation of a frog, the surface of the palatine mucosa was separated with minimized damage and of fixed to a cork plate in a Petri dish which was then filled with 20 ml of Ringer's solution (trishydrochloric acid). The palatine mucosa was left in this state for 30 minutes before the commencement of measurement. For measurement, the Ringer's solution was removed and fine pieces of cork (capable of passing pharmaceutical sieve No. 5 but not capable of passing No. 6) were placed on the surface of the palatine mucosa, and the time (in seconds) required for the cork piece to move 1 cm was measured. The duration of movement, i.e., moving speed, was measured also in the state immediately after the removal of the Ringer's solution or pharmaceutical solution.

[2] = system: ciliated cells from human airway and frog palate; test: Rotation of ciliated cell groups (Example 4); type: cell-based
Excerpt: Using ciliated cells from human airway and frog palate, rotation of cell groups due to ciliary beat was observed before and after application of N-acetylneuraminic acid and calcium salt of N-acetylneuraminic acid, in order to confirm the effect of these agents on the cilitated cells.
as §1, with “measured.” for “measured. The agents were dissolved in the Medium 199 and were injected through a tube attached to a rose chamber. The state of rotary motion 5 minutes, 10 minutes and 15 minutes after the injection were recorded by means of a video recorder, and the number of revolutions was measured.”

palatine mucosa of frog [3] = test: Ciliary movement of frog palatine mucosa, particle transport method (Example 3, Tables 1-3); type: cell-based, bull frog; conditions: for activation at 100 µg/mL / activation at 10 µg/mL: control = 0
Experimental: Bull frogs (furnished by Saitama Test Animal) weighing 300 to 450 g were used regardless of sex.
N-acetylneuraminic acid and calcium salt of N-acetylneuraminic acid (provided by Kanto Ishiseiyaku Kabushiki Kaisha), as well as acetylcholine chloride (furnished by Sigma Kabushiki Kaisha) were used as the test substances.
as §2

Structure (SMILES): CC(=O)OCC[N+](C)(C)C.[Cl-] [acetylcholine, acetylcholine chloride, reference compound]
- activation at 10 µg/mL (ciliated cell; 5 min, 5 min after perfusion): 58.1 ± 38.1%
- activation at 1 µg/mL (ciliated cell; 5 min, 5 min after perfusion): 27.8 ± 12.2%
- activation at 0.1 µg/mL (ciliated cell; 5 min, 5 min after perfusion): -1.7%
- activation at 10 µg/mL (ciliated cell; 10 min, 10 min after perfusion): 52 ± 32.6%
- activation at 1 µg/mL (ciliated cell; 10 min, 10 min after perfusion): 10.6 ± 15%
- activation at 0.1 µg/mL (ciliated cell; 10 min, 10 min after perfusion): 0.8%
- activation at 10 µg/mL (ciliated cell; 0.25 h, 15 min after perfusion): 44.5 ± 22%
- activation at 1 µg/mL (ciliated cell; 0.25 h, 15 min after perfusion): 20.8 ± 26.4%
- activation at 0.1 µg/mL (ciliated cell; 0.25 h, 15 min after perfusion): 14.6%
- Effect on rotation (ciliated cell; between 10^-3 and 10^-2 mg/ml): increase in the rotation in a certan dependency on the dose
- activation at 100 µg/mL (palatine mucosa of frog [1]; 5 min, 5 min after applied): 22.8 ± 26.1%
- activation at 10 µg/mL (palatine mucosa of frog [1]; 5 min, 5 min after applied): 17.5 ± 14.3%
- activation at 1 µg/mL (palatine mucosa of frog [1]; 5 min, 5 min after applied): 12.3 ± 8.5%
- activation at 0.1 µg/mL (palatine mucosa of frog [1]; 5 min, 5 min after applied): 3 ± 7.6%
- activation at 100 µg/mL (palatine mucosa of frog [1]; 10 min, 10 min after applied): 31 ± 24.9%
- activation at 10 µg/mL (palatine mucosa of frog [1]; 10 min, 10 min after applied): 18.8 ± 21.1%
- activation at 1 µg/mL (palatine mucosa of frog [1]; 10 min, 10 min after applied): 19.9 ± 16.8%
- activation at 0.1 µg/mL (palatine mucosa of frog [1]; 10 min, 10 min after applied): 3.8 ± 15.5%
- activation at 100 µg/mL (palatine mucosa of frog [1]; 0.25 h, 15 min after applied): 30.5 ± 19.5%
- activation at 10 µg/mL (palatine mucosa of frog [1]; 0.25 h, 15 min after applied): 24.9 ± 25.6%
- activation at 1 µg/mL (palatine mucosa of frog [1]; 0.25 h, 15 min after applied): 13.9 ± 20.5%
- activation at 0.1 µg/mL (palatine mucosa of frog [1]; 0.25 h, 15 min after applied): -5.5 ± 10%
- Time of speed peak of rotary motion after application ([2]; 3×10^-3 mg/ml): ~5 min
- Time of speed peak of rotary motion after application ([2]; 10^-3 mg/ml): about 10 minutes
- Effect on speed of rotary motion of the cilium cells ([2]; 10^-3 mg/ml and 3×10^-3 mg/ml): the speed of rotary motion of the cilium cells is increased
- Time after application at which rotary motion stopped ([2]; 10^-3 and 3×10^-3 mg/ml, both cases): 13 min
- Movement (palatine mucosa of frog [3]; 10^-4 g/ml, frog number 1): 21.0 s/cm
- Movement (palatine mucosa of frog [3]; 10^-4 g/ml, frog number 2): 21.7 s/cm
- Movement (palatine mucosa of frog [3]; 10^-4 g/ml, frog number 3): 20.7 s/cm
- Movement (palatine mucosa of frog [3]; 10^-5 g/ml, frog number 1): 27.0 s/cm
- Movement (palatine mucosa of frog [3]; 10^-5 g/ml, frog number 2): 29.7 s/cm
- Movement (palatine mucosa of frog [3]; 10^-5 g/ml, frog number 3): 26.3 s/cm
- activation at 100 µg/mL (palatine mucosa of frog [3]; read-out: Acceleration, 10^-4 g/ml, frog number 1): 53.3%
- activation at 100 µg/mL (palatine mucosa of frog [3]; read-out: Acceleration, 10^-4 g/ml, frog number 2): 41.4%
- activation at 100 µg/mL (palatine mucosa of frog [3]; read-out: Acceleration, 10^-4 g/ml, frog number 3): 47.3%
- activation at 10 µg/mL (palatine mucosa of frog [3]; read-out: Acceleration, 10^-5 g/ml, frog number 1): 40%
- activation at 10 µg/mL (palatine mucosa of frog [3]; read-out: Acceleration, 10^-5 g/ml, frog number 2): 19.7%
- activation at 10 µg/mL (palatine mucosa of frog [3]; read-out: Acceleration, 10^-5 g/ml, frog number 3): 33.1%

Structure (SMILES): CC(=O)N[C@H]1[C@H]([C@H](O)[C@H](O)CO)OC(O)(C(=O)O)C[C@@H]1O (stereo partly shown) [calcium salt of N-acetylneuraminic acid]
- Movement (palatine mucosa of frog [3]; 10^-4 g/ml, frog number 1): 23.0 s/cm
- activation at 100 µg/mL (palatine mucosa of frog [3]; 10^-4 g/ml, frog number 1, read-out: Acceleration): 39%
- Movement (palatine mucosa of frog [3]; 10^-4 g/ml, frog number 2): 29.0 s/cm
- activation at 100 µg/mL (palatine mucosa of frog [3]; 10^-4 g/ml, frog number 2, read-out: Acceleration): 28.7%
- Movement (palatine mucosa of frog [3]; 10^-4 g/ml, frog number 3): 19.7 s/cm
- activation at 100 µg/mL (palatine mucosa of frog [3]; 10^-4 g/ml, frog number 3, read-out: Acceleration): 46.8%
- Movement (palatine mucosa of frog [3]; 10^-5 g/ml, frog number 1): 25.0 s/cm
- activation at 10 µg/mL (palatine mucosa of frog [3]; 10^-5 g/ml, frog number 1, read-out: Acceleration): 33.7%
- Movement (palatine mucosa of frog [3]; 10^-5 g/ml, frog number 2): 29.3 s/cm
- activation at 10 µg/mL (palatine mucosa of frog [3]; 10^-5 g/ml, frog number 2, read-out: Acceleration): 28%
- Movement (palatine mucosa of frog [3]; 10^-5 g/ml, frog number 3): 24.3 s/cm
- activation at 10 µg/mL (palatine mucosa of frog [3]; 10^-5 g/ml, frog number 3, read-out: Acceleration): 34.2%
- Effect on ciliary movement of palatine mucosa (palatine mucosa of frog [3]; Tables 1 and 3): acceleration of the ciliary movement of palatine mucosa in a certain dose-dependency
- Ciliary movement promoting effect compared with acetylcholine (palatine mucosa of frog [3]; acetylcholine control at 10^-5 and 10^-4): substantially the same ciliary movement promoting effect as the acetylcholine

Structure (SMILES): CC(C)(C)NCC(O)c1cc(O)cc(O)c1 (stereo not shown) [terbutaline, 5-[2-[(1.1-dimetylethyl)amino]-1-hydoxyethyl]-1,3-benzenediole]
- Effect on rotation (ciliated cell; 10^-4 to 10^- mg/ml (so in the source)): general tendency of increase of the rotation
- activation at 10 µg/mL (ciliated cell; 5 min, 5 min after perfusion): 18.6 ± 0.3%
- activation at 1 µg/mL (ciliated cell; 5 min, 5 min after perfusion): 51.2 ± 36%
- activation at 0.1 µg/mL (ciliated cell; 5 min, 5 min after perfusion): -5.2 ± 12.2%
- activation at 10 µg/mL (ciliated cell; 10 min, 10 min after perfusion): 24.8 ± 3.5%
- activation at 1 µg/mL (ciliated cell; 10 min, 10 min after perfusion): 37.2 ± 35.5%
- activation at 0.1 µg/mL (ciliated cell; 10 min, 10 min after perfusion): 1.6 ± 4.6%
- activation at 10 µg/mL (ciliated cell; 0.25 h, 15 min after perfusion): 2.7 ± 7.4%
- activation at 1 µg/mL (ciliated cell; 0.25 h, 15 min after perfusion): 42.1 ± 32.8%
- activation at 0.1 µg/mL (ciliated cell; 0.25 h, 15 min after perfusion): 6.7 ± 3%
- Effect on rotary motion of the cilium cells ([2]; 10^-3 to 3×10^-2 mg/ml): the rotary motion of the cilium cells is increased
- Effect on rotary motion, time dependence ([2]; 5 minutes after application, 10^-3 to 3×10^-2 mg/ml): particularly remarkable 5 minutes after the application
